Patent US20130252890A1, “6,7-DIHYDRO-5H-BENZO[7]ANNULENE DERIVATIVES, PROCESS FOR PREPARATION THEREOF, PHARMACEUTICAL PREPARATIONS COMPRISING THEM, AND THE USE THEREOF FOR PRODUCTION OF MEDICAMENTS” (BAYER INTELLECTUAL PROPERTY GMBH, priority 2010, published 2013)

Each molecule was assayed against T1, oestrogen receptor (ER) (Homo sapiens, UniProt P03372) (assay: Anti-oestrogenic action in MVLN cells (inhibition of estradiol-induced luciferase)). Settings: inhibition of estradiol-induced luciferase signal, value of Ex. 44 is a mean value, read-out: Antioestrogenic action in vitro: MVLN transactivation antagonism IC50.
T1 construct: These MVLN cells express, along with the functional oestrogen receptor (ER), a reporter construct; endogenous in cells; host or cells: MVLN cells (MCF7 derivative carrying a luciferase reporter construct)
T1 sequence (P03372 1-595): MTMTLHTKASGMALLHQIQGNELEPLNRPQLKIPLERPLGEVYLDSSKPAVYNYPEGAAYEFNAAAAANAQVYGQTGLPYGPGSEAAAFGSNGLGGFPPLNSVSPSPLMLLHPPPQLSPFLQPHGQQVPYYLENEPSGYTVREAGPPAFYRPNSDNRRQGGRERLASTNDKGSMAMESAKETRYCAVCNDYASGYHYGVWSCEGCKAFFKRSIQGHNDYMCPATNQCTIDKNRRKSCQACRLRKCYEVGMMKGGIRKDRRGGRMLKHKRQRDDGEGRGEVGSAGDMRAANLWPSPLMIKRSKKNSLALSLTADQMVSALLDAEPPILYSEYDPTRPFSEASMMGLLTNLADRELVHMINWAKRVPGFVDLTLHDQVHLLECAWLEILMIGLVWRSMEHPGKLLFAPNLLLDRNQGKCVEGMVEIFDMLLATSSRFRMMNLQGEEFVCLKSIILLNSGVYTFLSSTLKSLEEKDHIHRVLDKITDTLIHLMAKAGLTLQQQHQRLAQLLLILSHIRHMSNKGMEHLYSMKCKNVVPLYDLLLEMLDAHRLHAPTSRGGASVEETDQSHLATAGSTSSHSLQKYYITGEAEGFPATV
Format: cell-based
Method in brief: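 MVLN cells, MCF7 breast cancer derivatives carrying functional ER plus an ER-activated luciferase reporter, were treated with compounds in the presence of estradiol. Anti-oestrogenic activity taken as inhibition of the estradiol-induced luciferase signal.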

**Q.** `O=S(=O)(CCCN(CCCO)CCCCCCC1=C(c2ccc(F)cc2)CCCc2cc(O)ccc21)CCCC(F)(F)C(F)(F)F` [Example 55, 8-(4-Fluorophenyl)-9-{6-[(3-hydroxypropyl){3-[(4,4,5,5,5-pentafluoropentyl)sulphonyl]propyl}amino]hexyl}-6,7-dihydro-5H-benzo[7]annulen-3-ol] was tested. Which IC50 did it give?
**A.** Its IC50 is 22 nM.

**Q.** For `CC(C)(O)CN(CCCCCCC1=C(c2ccc(F)cc2)CCCc2cc(O)ccc21)CCC[S+]([O-])CCC(F)(F)F` (stereo not drawn) [Example 120, 8-(4-fluorophenyl)-9-{6-[(2-hydroxy-2-methylpropyl){3-[(3,3,3-trifluoropropyl)sulphinyl]propyl}amino)hexyl}-6,7-dihydro-5H-benzo[7]annulen-3-ol], which IC50 is on record?
**A.** Its IC50 is 56 nM.

**Q.** With `COCCN(CCCCCCC1=C(c2cc(F)cc(F)c2)CCCc2cc(O)ccc21)CCCS(=O)(=O)CCCC(F)(F)C(F)(F)F` [Example 15, 8-(3,5-Difluorophenyl)-9-{6-[(2-methoxyethyl){3-[(4,4,5,5,5-pentafluoropentyl)sulphonyl]propyl}amino]hexyl}-6,7-dihydro-5H-benzo[7]annulen-3-ol] as the molecule, how does the IC50 read?
**A.** The IC50 was 26 nM.

**Q.** With `O=S(=O)(CCCN(CCO)CCCCCCC1=C(c2ccc(F)cc2)CCCc2cc(O)c(F)cc21)CCCC(F)(F)F` [Example 103, 2-Fluoro-8-(4-fluorophenyl)-9-{6-[(2-hydroxyethyl){3-[(4,4,4-trifluorobutyl)sulphonyl]propyl}amino]hexyl}-6,7-dihydro-5H-benzo[7]annulen-3-ol] as the molecule, how does the IC50 read?
**A.** The IC50 was 5 nM.

**Q.** With `CN(CCCCCCC1=C(c2ccc(F)cc2)CCCc2c1ccc(O)c2F)CCCCS(=O)(=O)CCCC(F)(F)C(F)(F)F` [Example 43, 4-Fluoro-8-(4-fluorophenyl)-9-[6-(methyl{4-[(4,4,5,5,5-pentafluoropentyl)sulphonyl]butyl}amino)hexyl]-6,7-dihydro-5H-benzo[7]annulen-3-ol] as the molecule, how does the IC50 read?
**A.** The IC50 was 20 nM.

**Q.** `CC(C)(O)CN(CCCCCCC1=C(c2ccc(F)cc2)CCCc2cc(O)ccc21)CCCS(=O)(=O)CCC(F)(F)F` [Example 119, 8-(4-fluorophenyl)-9-{6-[(2-hydroxy-2-methylpropyl){3-[(3,3,3-trifluoropropyl)sulphonyl]propyl}amino]hexyl}-6,7-dihydro-5H-benzo[7]annulen-3-ol] was tested. Which IC50 did it give?
**A.** The IC50 was 80 nM.

**Q.** Which IC50 does the source give for `[2H]C([2H])([2H])N(CCCCCCC1=C(c2ccc(F)cc2F)CCCc2cc(O)ccc21)CCCS(=O)(=O)CCCCC(F)(F)F` [Example 136, 8-(2,4-Difluorophenyl)-9-{6-[(^2H3)methyl{3-[(5,5,5-trifluoropentyl)sulphonyl]propyl}amino]hexyl}-6,7-dihydro-5H-benzo[7]annulen-3-ol] here?
**A.** The IC50 was 9 nM.

**Q.** For `O=C(O)CCCN(CCCCCCC1=C(c2ccc(F)cc2)CCCc2cc(O)ccc21)CCCCS(=O)(=O)CCCC(F)(F)F` [Example 96, 4-({6-[8-(4-Fluorophenyl)-3-hydroxy-6,7-dihydro-5H-benzo[7]annulen-9-yl]hexyl}{4-[(4,4,4-trifluorobutyl)sulphonyl]butyl}amino)butanoic acid], which IC50 is on record?
**A.** Its IC50 is 21 nM.

**Q.** How did the IC50 turn out when `COC(=O)CCCN(CCCCCCC1=C(c2ccc(F)cc2)CCCc2cc(O)ccc21)CCCCS(=O)(=O)CCCC(F)(F)F` [Example 88, Methyl-4-({6-[8-(4-fluorophenyl)-3-hydroxy-6,7-dihydro-5H-benzo[7]annulen-9-yl]hexyl}{4-[(4,4,4-trifluorobutyl)sulphonyl]butyl}amino)butanoate] was run?
**A.** Its IC50 is 24 nM.

**Q.** Which IC50 does the source give for `O=S(=O)(CCCN(CCF)CCCCCCC1=C(c2ccc(F)cc2)CCCc2cc(O)ccc21)CCCC(F)(F)C(F)(F)F` [Example 74, 9-{6-[(2-Fluoroethyl){3-[(4,4,5,5,5-pentafluoropentyl)sulphonyl]propyl}amino]hexyl}-8-(4-fluorophenyl)-6,7-dihydro-5H-benzo[7]annulen-3-ol] here?
**A.** Its IC50 is 28 nM.

**Q.** How did the IC50 turn out when `CN(CCCCCCC1=C(c2cc(F)cc(F)c2)CCCc2cc(O)ccc21)CCCS(=O)(=O)CCCC(F)(F)C(F)(F)F` [Example 1, 8-(3,5-Difluorophenyl)-9-[6-(methyl{3-[(4,4,5,5,5-pentafluoropentyl)sulphonyl]propyl}amino)hexyl]-6,7-dihydro-5H-benzo[7]annulen-3-ol] was run?
**A.** Its IC50 is 48 nM.

**Q.** For `O=S(=O)(CCCN(CCCCCCC1=C(c2ccc(F)cc2)CCCc2c1ccc(O)c2F)Cc1ccc(F)cc1)CCCC(F)(F)C(F)(F)F` [Example 65, 4-Fluoro-9-{6-[(4-fluorobenzyl){3-[(4,4,5,5,5-pentafluoropentyl)sulphonyl]propyl}amino]hexyl}-8-(4-fluorophenyl)-6,7-dihydro-5H-benzo[7]annulen-3-ol], which IC50 is on record?
**A.** Its IC50 is 116 nM.

**Q.** `CN(CCCCCCC1=C(c2cc(F)cc(F)c2)CCCc2cc(O)ccc21)CCC[S+]([O-])CCC(F)(F)C(F)(F)F` (stereo not drawn) [Example 2, 8-(3,5-Difluorophenyl)-9-[6-(methyl{3-[(3,3,4,4,4-pentafluorobutyl)sulphinyl]propyl}amino)hexyl]-6,7-dihydro-5H-benzo[7]annulen-3-ol] was tested. Which IC50 did it give?
**A.** Its IC50 is 8 nM.

**Q.** `CN(CCCCCCC1=C(c2ccc(F)cc2)CCCc2c1ccc(O)c2F)CCCS(=O)(=O)CCC(F)(F)C(F)(F)F` [Example 34, 4-Fluoro-8-(4-fluorophenyl)-9-[6-(methyl{3-[(3,3,4,4,4-pentafluorobutyl)sulphonyl]propyl}amino)hexyl]-6,7-dihydro-5H-benzo[7]annulen-3-ol] was tested. Which IC50 did it give?
**A.** Its IC50 is 27 nM.

**Q.** Which IC50 does the source give for `O=S(=O)(CCCCN(CCO)CCCCCCC1=C(c2ccc(F)cc2)CCCc2cc(O)ccc21)CCC(F)(C(F)(F)F)C(F)(F)F` [Example 109, 8-(4-Fluorophenyl)-9-{6-[(2-hydroxyethyl)(4-{[3,4,4,4-tetrafluoro-3-(trifluoromethyl)butyl]sulphonyl}butyl)amino]hexyl}-6,7-dihydro-5H-benzo[7]annulen-3-ol] here?
**A.** Its IC50 is 26 nM.

**Q.** `CC(C)(O)CN(CCCCCCC1=C(c2cc(F)cc(F)c2)CCCc2cc(O)ccc21)CCCS(=O)(=O)CCC(F)(F)F` [Example 11, 8-(3,5-Difluorophenyl)-9-{6-[(2-hydroxy-2-methylpropyl){3-[(3,3,3-trifluoropropyl)sulphonyl]propyl}amino]hexyl}-6,7-dihydro-5H-benzo[7]annulen-3-ol] was tested. Which IC50 did it give?
**A.** Its IC50 is 84 nM.

**Q.** For `CN(CCCCCCC1=C(c2ccc(F)cc2)CCCc2c1ccc(O)c2F)CCC[S+]([O-])CCC(F)(F)F` (stereo not drawn) [Example 36, 4-Fluoro-8-(4-fluorophenyl)-9-[6-(methyl{3-[(3,3,3-trifluoropropyl)sulphinyl]propyl}amino)hexyl]-6,7-dihydro-5H-benzo[7]annulen-3-ol], which IC50 is on record?
**A.** Its IC50 is 35 nM.

**Q.** `CN(CCCCCCC1=C(c2ccc(F)c(F)c2)CCCc2cc(O)ccc21)CCC[S+]([O-])CCC(F)(F)C(F)(F)F` (stereo not drawn) [Example 18, 8-(3,4-Difluorophenyl)-9-[6-(methyl{3-[(3,3,4,4,4-pentafluorobutyl)sulphinyl]propyl}amino)hexyl]-6,7-dihydro-5H-benzo[7]annulen-3-ol] was tested. Which IC50 did it give?
**A.** Its IC50 is 34 nM.

**Q.** With `O=C(O)CN(CCCCCCC1=C(c2ccc(F)cc2)CCCc2cc(O)ccc21)CCCCS(=O)(=O)CCCC(F)(F)F` [Example 94, N-{6-[8-(4-Fluorophenyl)-3-hydroxy-6,7-dihydro-5H-benzo[7]annulen-9-yl]hexyl}-N-{4-[(4,4,4-trifluorobutyl)sulphonyl]butyl}glycine] as the molecule, how does the IC50 read?
**A.** Its IC50 is 21 nM.

**Q.** `CN(CCCCCCC1=C(c2ccc(F)cc2)CCCc2cc(O)c(F)cc21)CCCCS(=O)(=O)C1CCC(F)(F)CC1` [Example 144, 9-{6-[{4-[(4,4-Difluorocyclohexyl)sulphonyl]butyl}(methyl)amino]hexyl}-2-fluoro-8-(4-fluorophenyl)-6,7-dihydro-5H-benzo[7]annulen-3-ol] was tested. Which IC50 did it give?
**A.** Its IC50 is 10 nM.

**Q.** How did the IC50 turn out when `CN(CCCCCCC1=C(c2ccc(F)cc2)CCCc2cc(O)ccc21)CCCS(=O)(=O)CCC(F)(C(F)(F)F)C(F)(F)F` [Example 110, 8-(4-Fluorophenyl)-9-{6-[methyl(3-{[3,4,4,4-tetrafluoro-3-(trifluoromethyl)butyl]sulphonyl}propyl)amino]hexyl}-6,7-dihydro-5H-benzo[7]annulen-3-ol] was run?
**A.** Its IC50 is 73 nM.

**Q.** `CN(CCCCCCC1=C(c2ccc(F)cc2)CCCc2cc(O)c(F)cc21)CCCCCS(=O)(=O)CCC(F)(F)F` [Example 107, 2-Fluoro-8-(4-fluorophenyl)-9-[6-(methyl{5-[(3,3,3-trifluoropropyl)sulphonyl]pentyl}amino)hexyl]-6,7-dihydro-5H-benzo[7]annulen-3-ol] was tested. Which IC50 did it give?
**A.** The IC50 was 123 nM.

**Q.** Which IC50 does the source give for `O=S(=O)(CCCN(CCO)CCCCCCC1=C(c2ccc(F)cc2)CCCc2cc(O)ccc21)CCC(F)(C(F)(F)F)C(F)(F)F` [Example 108, 8-(4-Fluorophenyl)-9-{6-[(2-hydroxyethyl)(3-{[3,4,4,4-tetrafluoro-3-(trifluoromethyl)butyl]sulphonyl}propyl)amino]hexyl}-6,7-dihydro-5H-benzo[7]annulen-3-ol] here?
**A.** The IC50 was 69 nM.

**Q.** `CN(CCCCCCC1=C(c2cc(F)cc(F)c2)CCCc2cc(O)ccc21)CCCS(=O)(=O)CCC(F)(F)C(F)(F)F` [Example 3, 8-(3,5-Difluorophenyl)-9-[6-(methyl{3-[(3,3,4,4,4-pentafluorobutyl)sulphonyl]propyl}amino)hexyl]-6,7-dihydro-5H-benzo[7]annulen-3-ol] was tested. Which IC50 did it give?
**A.** Its IC50 is 180 nM.
